The structures appear in SMILES notation. Read-outs that look alike come from different tables or passages of the source.

The nature of one data set: in vivo. Conditions: rat.
The nature of data set [1]: in vitro. Conditions: monkey, microsomes.
Another data set has as its target CYP 3A4 (Homo sapiens, UniProt P08684). In words: in vitro.
Data set [2] is described as follows: in vitro. Format: in vitro ADME. The note with it: human, microsomes.
Data set [3] concerns the target human phosphodiesterase 4. The data set is described as follows: Phosphodiesterase 4 functional assay. Format: biochemical. Conditions: read-out: IC50 phosphodiesterase 4 functional assay.
Data set [4] addresses recombinant wild-type NS5B (genotype 1b, Con1) (Hepatitis C virus genotype 1b, UniProt Q9WMX2). In words: biochemical.
Data set [5] in a line: in vitro.
Data set [6] concerns chronic HCV genotype 1 infection. The note with it: patients, cited from earlier work.
The subject of data set [7] is HCV genotype 1b (Con1) replicon in Huh-7. In words: microbe, parasite or virus in culture. It counts as cell-based. Conditions: Hepatitis C virus, GETYPE1B, Huh-7, read-out: potency in the replicon assays.
Another data set deals with NS5B P495L (Hepatitis C virus genotype 1b, UniProt Q9WMX2, P2914L). The data set is described as follows: biochemical.
The conditions of data set [8]: rat; for liver levels: satellite study.
Data set [9] concerns the target human pregnane X receptor (hPXR) (Homo sapiens, UniProt O75469). Conditions: at 5.56 μM.
Another data set is described as follows: physchem. The note with it: pKa values, zwitterionic form.
For data set [10], the system named is BVDV, polio, rhino, corona, coxsackie, influenza, and human immunodeficiency viruses (HIV). In words: organism not typed. It counts as cell-based. Conditions: read-out: EC50 against panel of viruses.

human pregnane X receptor (hPXR), sequence (O75469 whole entry): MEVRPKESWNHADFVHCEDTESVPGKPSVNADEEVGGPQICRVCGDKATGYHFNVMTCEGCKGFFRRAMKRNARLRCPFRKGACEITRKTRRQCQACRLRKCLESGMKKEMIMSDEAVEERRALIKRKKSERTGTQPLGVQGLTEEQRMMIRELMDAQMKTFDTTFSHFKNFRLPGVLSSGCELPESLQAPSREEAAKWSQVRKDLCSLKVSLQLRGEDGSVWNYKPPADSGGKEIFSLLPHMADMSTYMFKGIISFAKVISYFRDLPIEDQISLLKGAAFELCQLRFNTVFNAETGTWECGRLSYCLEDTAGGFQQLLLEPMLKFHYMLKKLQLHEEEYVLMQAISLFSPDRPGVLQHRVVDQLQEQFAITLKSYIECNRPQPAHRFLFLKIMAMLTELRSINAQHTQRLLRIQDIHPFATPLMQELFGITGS
CYP 3A4, sequence (P08684 whole entry): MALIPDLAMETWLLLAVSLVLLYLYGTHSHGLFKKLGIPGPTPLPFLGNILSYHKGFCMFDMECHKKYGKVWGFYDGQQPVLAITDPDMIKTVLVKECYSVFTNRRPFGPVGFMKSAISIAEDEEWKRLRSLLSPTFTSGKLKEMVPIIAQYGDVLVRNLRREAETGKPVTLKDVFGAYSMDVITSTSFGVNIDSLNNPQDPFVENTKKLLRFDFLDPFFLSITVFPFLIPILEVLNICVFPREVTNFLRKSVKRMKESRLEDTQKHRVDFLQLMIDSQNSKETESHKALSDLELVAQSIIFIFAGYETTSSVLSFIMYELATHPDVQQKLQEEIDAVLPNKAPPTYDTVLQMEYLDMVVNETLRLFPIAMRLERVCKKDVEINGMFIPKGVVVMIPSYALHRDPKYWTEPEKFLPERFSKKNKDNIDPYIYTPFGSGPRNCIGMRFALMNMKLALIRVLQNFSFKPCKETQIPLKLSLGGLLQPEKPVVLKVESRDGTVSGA

On to `COc1ccc2c(c1)[C@@H]1C[C@]1(C(=O)N1[C@@H]3CC[C@H]1CN(C)C3)Cn1c-2c(C2CCCCC2)c2ccc(C(=O)NS(=O)(=O)N(C)C)cc21` [Compound 66, beclabuvir], for which the “bound to human serum” value is recorded as 98%. In the data set “in vivo” (iv, 5 mg/kg), this molecule had an AUC(0-inf) of 30 µM·h, a peak concentration (Cmax) of 12.1 µM and a half-life of 672 min. In the data set “in vivo” (po, 10 mg/kg), this molecule came in with an AUC(0-inf) of 39.3 µM·h and a Cmax of 3.26 µM. In the data set “in vitro [1]”, this molecule showed a half-life of 23 min. Further, on CYP 3A4, the IC50 was greater than 40 µM. Also, the half-life in “in vitro [2]” amounted to 53 min. For the same molecule, the half-inhibitory concentration (IC50) in [3] is greater than 10 µM. In data set [4], the IC50 came out at 0.02 µM. The molecule also gave a CC50 in “in vitro [5]” of 14 to 48 µM. The “decline in viral load” value in data set [6] (300 mg single dose, 24 h post-dosing) was “approximately 2.5 log10 IU/mL”. Also, the tolerability entry in [6] (single doses 100-900 mg) was “well tolerated”. In addition, the EC50 in data set [7] was less than 0.01 µM. Besides, at NS5B P495L, the 50% inhibitory concentration (IC50) was 0.19 µM. Further, the liver levels in data set [8] (4 h following oral dosing) is on record as 24,400 nM. The liver levels in data set [8] (24 h following oral dosing) is 1,700 nM. Further, the Cl in [8] (in vivo, iv, 5 mg/kg) is on record as 3.5 (±0.8) mL/min/kg. For the same molecule, in [9], the “hPXR transactivation Y max” value is on record as 8.1 ± 1.9. The molecule further yielded a pKa in the data set “physchem” of 4.6. The EC50 in [10] is greater than 14 µM.
